Laboratory results published in patent publication US6420131B1, “Use of fluorescein aryl ethers in high throughput cytochrome P450 inhibition assays” (Gentest Corporation, priority 1999, dated 2002).

Legend:
Settings in all cases: substrate uM: Ia 2, AMMC 20, CEC 40, MFC 50, BFC 50, BQ 40, BzRes 50; 30 min; enzyme 50 nM
Rat CYP2A2 = Rat CYP2A2 (Rattus norvegicus, UniProt P15149); experiment: Turnover of fluorometric substrates by rat CYP2A2
Rat CYP2D1 = molecular target: T1, Rat CYP2D1 (Rattus norvegicus, UniProt P10633); experiment: Turnover of fluorometric substrates by rat CYP2D1
T1 sequence (P10633 1-504): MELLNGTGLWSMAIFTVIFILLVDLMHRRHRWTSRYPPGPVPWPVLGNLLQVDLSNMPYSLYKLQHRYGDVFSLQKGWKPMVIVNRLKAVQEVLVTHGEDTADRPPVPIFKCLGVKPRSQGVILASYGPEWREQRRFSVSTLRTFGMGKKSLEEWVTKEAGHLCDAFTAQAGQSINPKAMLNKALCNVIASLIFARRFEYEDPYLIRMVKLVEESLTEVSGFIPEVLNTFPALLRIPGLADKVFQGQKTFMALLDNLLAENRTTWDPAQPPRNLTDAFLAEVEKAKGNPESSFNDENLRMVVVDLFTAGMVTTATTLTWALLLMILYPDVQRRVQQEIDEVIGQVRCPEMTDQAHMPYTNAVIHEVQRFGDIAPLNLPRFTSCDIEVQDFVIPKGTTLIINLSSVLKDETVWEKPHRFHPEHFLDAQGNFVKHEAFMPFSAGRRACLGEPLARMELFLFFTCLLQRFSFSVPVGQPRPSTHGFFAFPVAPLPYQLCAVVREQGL

Rat CYP3A1 = molecular target: T2, Rat CYP3A1 (Rattus norvegicus, UniProt P04800); experiment: Turnover of fluorometric substrates by rat CYP3A1
T2 sequence (P04800 1-504): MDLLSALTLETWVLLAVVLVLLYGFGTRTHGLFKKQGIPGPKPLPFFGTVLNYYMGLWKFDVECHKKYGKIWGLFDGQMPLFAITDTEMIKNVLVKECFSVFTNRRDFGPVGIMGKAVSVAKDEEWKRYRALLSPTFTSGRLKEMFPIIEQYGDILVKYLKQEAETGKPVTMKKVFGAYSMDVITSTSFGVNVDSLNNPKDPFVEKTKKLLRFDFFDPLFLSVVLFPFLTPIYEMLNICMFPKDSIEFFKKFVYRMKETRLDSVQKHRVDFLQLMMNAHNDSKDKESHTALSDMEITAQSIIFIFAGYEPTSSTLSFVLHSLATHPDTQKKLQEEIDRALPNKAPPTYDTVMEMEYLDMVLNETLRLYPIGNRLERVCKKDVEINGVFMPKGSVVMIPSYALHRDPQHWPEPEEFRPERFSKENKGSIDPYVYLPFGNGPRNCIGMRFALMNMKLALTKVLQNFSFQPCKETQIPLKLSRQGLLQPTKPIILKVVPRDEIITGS

Rat CYP3A2 = molecular target: T3, Rat CYP3A2 (Rattus norvegicus, UniProt P05183); experiment: Turnover of fluorometric substrates by rat CYP3A2
T3 sequence (P05183 1-504): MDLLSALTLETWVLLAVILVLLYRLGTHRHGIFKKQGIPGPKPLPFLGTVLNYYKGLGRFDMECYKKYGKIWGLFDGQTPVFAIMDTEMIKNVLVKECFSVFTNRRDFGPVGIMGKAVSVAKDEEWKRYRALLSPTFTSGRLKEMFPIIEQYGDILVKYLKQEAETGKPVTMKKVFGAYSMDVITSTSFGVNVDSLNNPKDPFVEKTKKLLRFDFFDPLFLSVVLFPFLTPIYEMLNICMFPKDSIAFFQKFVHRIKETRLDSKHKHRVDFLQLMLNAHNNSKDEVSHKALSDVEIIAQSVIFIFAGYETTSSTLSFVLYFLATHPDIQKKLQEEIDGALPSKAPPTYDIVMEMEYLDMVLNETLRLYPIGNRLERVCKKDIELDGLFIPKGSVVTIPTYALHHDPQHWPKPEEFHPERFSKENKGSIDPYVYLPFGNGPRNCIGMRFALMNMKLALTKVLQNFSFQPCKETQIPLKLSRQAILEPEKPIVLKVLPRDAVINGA

Rat CYP2C11 = molecular target: T4, Rat CYP2C11 (Rattus norvegicus, UniProt P08683); experiment: Turnover of fluorometric substrates by rat CYP2C11
T4 sequence (P08683 1-500): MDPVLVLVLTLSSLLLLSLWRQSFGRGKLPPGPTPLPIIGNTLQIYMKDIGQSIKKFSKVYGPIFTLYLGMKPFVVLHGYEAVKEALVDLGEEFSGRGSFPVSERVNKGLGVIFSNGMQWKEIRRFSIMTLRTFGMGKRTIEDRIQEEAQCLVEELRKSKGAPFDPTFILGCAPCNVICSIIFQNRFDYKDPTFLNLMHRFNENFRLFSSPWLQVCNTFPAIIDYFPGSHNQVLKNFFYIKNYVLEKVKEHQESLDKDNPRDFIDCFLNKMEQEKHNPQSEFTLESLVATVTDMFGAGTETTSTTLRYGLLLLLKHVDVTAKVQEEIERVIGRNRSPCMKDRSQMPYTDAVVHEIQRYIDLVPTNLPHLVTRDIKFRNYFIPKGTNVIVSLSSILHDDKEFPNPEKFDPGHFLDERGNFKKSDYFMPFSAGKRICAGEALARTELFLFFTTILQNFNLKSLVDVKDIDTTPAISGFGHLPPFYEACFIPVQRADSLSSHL

Rat CYP2C13 = molecular target: T5, Rat CYP2C13 (Rattus norvegicus, UniProt P20814); experiment: Turnover of fluorometric substrates by rat CYP2C13
T5 sequence (P20814 1-490): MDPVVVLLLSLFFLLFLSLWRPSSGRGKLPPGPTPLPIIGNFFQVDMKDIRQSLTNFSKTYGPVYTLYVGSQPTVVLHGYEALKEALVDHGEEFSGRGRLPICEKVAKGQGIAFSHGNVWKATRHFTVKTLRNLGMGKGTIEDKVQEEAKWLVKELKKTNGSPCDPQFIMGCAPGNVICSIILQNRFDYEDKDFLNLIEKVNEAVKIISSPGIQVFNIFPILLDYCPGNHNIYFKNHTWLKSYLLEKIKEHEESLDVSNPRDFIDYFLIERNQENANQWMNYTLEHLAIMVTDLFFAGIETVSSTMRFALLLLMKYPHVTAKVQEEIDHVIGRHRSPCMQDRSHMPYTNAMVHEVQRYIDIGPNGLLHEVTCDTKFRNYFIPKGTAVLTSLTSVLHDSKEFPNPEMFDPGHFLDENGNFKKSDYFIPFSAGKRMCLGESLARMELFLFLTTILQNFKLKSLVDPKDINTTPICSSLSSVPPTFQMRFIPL

Rat CYP2A2, sequence (P15149 whole entry): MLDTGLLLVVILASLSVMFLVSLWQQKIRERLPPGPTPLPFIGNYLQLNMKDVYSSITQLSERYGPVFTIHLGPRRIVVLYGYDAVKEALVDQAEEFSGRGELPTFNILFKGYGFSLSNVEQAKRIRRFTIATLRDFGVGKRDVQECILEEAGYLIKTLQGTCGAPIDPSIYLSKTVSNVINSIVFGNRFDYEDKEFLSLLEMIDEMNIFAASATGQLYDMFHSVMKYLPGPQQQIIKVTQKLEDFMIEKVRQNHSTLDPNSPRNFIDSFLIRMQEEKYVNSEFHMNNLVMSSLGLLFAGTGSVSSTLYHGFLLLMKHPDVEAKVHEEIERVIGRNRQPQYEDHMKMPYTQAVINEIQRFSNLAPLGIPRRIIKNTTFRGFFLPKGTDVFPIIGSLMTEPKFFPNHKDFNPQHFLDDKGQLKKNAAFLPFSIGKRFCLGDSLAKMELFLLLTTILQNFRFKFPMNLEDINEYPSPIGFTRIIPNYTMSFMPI

Row | SMILES | Turnover Numbers, CYP2A2 (Rat CYP2A2) | Turnover Numbers, CYP2D1 (Rat CYP2D1) | Turnover Numbers, CYP3A1 (Rat CYP3A1) | Turnover Numbers, CYP3A2 (Rat CYP3A2) | Turnover Numbers, CYP2C11 (Rat CYP2C11) | Turnover Numbers, CYP2C13 (Rat CYP2C13)
1 | c1ccc(COc2ccc3cccnc3c2)cc1 [BQ, 7-Benzyloxyquinoline] | 2.8 pmol product/min/pmol enzyme | 5.3 pmol product/min/pmol enzyme | 8.4 pmol product/min/pmol enzyme | 9.8 pmol product/min/pmol enzyme |  | 
2 | COc1ccc2c(C(F)(F)F)cc(=O)oc2c1 [MFC, 7-Methoxy-4-trifluoromethylcoumarin] | 0.08 pmol product/min/pmol enzyme | 0.09 pmol product/min/pmol enzyme |  |  | 5.57 pmol product/min/pmol enzyme | 0.21 pmol product/min/pmol enzyme
3 | O=c1cc(C(F)(F)F)c2ccc(OCc3ccccc3)cc2o1 [BFC, 7-Benzyloxy-4-trifluoromethylcoumarin] | 0.26 pmol product/min/pmol enzyme | 0.25 pmol product/min/pmol enzyme | 1.33 pmol product/min/pmol enzyme | 1.04 pmol product/min/pmol enzyme | 0.34 pmol product/min/pmol enzyme | 0.74 pmol product/min/pmol enzyme
4 | CCOc1ccc2cc(C#N)c(=O)oc2c1 [CEC, 7-Ethoxy-3-cyanocoumarin] | 0.04 pmol product/min/pmol enzyme |  | 0.08 pmol product/min/pmol enzyme | 0.15 pmol product/min/pmol enzyme | 0.55 pmol product/min/pmol enzyme | 
5 | O=c1ccc2nc3ccc(OCc4ccccc4)cc3oc-2c1 [BzRes, 7-benzyloxyresorufin] |  | 0.02 pmol product/min/pmol enzyme | 0.06 pmol product/min/pmol enzyme | 0.09 pmol product/min/pmol enzyme | 0.05 pmol product/min/pmol enzyme | 0.01 pmol product/min/pmol enzyme
6 | O=C(OCc1ccccc1)c1ccccc1-c1c2ccc(=O)cc-2oc2cc(OCc3ccccc3)ccc12 [Compound Ia, O-Benzylfluorescein Benzyl Ester] | 0.030 pmol product/min/pmol enzyme | 0.159 pmol product/min/pmol enzyme | 0.027 pmol product/min/pmol enzyme | 0.015 pmol product/min/pmol enzyme | 0.065 pmol product/min/pmol enzyme | 0.003 pmol product/min/pmol enzyme
